Test results published in ChEMBL document CHEMBL1143264 (Bioorg Med Chem Lett, 2009).

Assays:
Type in all cases: cell membranes
[1] = target: Neuronal acetylcholine receptor; alpha4/beta2 (Rattus norvegicus, UniProt P09483+P12390); experiment: Displacement of [3H]epibatidine from alpha-4-beta-2 nAchR in rat brain cortex membrane
[2] = target: Neuronal acetylcholine receptor subunit alpha-7 (Rattus norvegicus, UniProt Q05941); experiment: Displacement of [125I]alpha-Bungarotoxin from alpha-7 nAchR in rat brain cortex membrane
[3] = target: T1, Adrenergic receptor alpha-2 (Rattus norvegicus, UniProt P22086+P19328+P22909); experiment: Displacement of [3H]RS 79948-197 from alpha-2 adrenergic receptor in rat brain cortex membrane
T1 sequence (P22086 whole entry): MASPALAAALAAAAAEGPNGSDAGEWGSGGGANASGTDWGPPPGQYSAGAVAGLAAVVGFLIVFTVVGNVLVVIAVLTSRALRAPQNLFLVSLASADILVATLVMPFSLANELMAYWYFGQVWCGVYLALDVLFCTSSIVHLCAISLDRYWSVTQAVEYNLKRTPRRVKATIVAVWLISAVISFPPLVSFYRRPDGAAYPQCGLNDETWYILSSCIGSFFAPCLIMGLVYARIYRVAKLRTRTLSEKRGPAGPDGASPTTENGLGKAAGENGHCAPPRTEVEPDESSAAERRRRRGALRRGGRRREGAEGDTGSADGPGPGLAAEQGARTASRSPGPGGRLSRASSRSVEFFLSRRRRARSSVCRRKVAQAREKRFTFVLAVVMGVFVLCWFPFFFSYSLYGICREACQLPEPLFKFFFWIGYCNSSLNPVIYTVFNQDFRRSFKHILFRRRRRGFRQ
T1 sequence (P19328 whole entry): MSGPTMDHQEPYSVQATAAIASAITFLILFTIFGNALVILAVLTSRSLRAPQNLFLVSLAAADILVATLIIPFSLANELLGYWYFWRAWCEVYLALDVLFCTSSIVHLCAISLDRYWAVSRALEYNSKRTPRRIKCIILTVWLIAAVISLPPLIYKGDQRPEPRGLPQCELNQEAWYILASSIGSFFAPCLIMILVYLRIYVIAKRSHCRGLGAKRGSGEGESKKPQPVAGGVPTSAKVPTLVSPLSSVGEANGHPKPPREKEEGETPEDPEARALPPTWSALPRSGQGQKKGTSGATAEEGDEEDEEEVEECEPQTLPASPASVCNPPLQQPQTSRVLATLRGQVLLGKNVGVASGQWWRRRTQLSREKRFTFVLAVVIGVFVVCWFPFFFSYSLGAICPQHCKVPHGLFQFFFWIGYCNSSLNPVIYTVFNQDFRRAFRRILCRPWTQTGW
T1 sequence (P22909 whole entry): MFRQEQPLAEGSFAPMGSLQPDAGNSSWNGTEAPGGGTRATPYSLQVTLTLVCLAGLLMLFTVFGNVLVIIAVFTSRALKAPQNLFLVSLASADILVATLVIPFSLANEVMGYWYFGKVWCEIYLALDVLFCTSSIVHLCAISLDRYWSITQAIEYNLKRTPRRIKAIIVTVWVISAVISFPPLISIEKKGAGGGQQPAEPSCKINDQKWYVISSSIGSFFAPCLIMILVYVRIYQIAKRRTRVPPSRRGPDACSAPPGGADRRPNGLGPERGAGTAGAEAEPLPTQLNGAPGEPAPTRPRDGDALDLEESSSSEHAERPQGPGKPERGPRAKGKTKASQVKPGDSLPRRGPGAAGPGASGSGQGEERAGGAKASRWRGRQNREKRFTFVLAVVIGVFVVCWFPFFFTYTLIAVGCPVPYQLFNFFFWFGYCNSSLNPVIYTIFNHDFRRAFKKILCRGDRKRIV

Chain of Neuronal acetylcholine receptor subunit alpha-7 (Q05941 whole entry): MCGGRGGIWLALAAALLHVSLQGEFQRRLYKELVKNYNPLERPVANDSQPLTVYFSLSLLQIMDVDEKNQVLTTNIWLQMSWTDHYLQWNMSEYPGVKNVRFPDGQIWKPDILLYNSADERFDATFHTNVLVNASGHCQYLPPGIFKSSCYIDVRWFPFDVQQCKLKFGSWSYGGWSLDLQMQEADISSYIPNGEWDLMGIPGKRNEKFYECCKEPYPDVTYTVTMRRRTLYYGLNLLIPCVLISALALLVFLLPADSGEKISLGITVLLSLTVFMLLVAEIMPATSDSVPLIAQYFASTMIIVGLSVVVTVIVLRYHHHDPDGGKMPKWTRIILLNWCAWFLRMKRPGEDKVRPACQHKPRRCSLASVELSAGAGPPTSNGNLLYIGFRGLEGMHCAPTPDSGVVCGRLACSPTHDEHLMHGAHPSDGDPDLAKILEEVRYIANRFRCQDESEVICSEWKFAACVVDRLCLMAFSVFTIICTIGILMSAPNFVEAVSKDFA
Chain of Neuronal acetylcholine receptor; alpha4/beta2 (P09483 whole entry): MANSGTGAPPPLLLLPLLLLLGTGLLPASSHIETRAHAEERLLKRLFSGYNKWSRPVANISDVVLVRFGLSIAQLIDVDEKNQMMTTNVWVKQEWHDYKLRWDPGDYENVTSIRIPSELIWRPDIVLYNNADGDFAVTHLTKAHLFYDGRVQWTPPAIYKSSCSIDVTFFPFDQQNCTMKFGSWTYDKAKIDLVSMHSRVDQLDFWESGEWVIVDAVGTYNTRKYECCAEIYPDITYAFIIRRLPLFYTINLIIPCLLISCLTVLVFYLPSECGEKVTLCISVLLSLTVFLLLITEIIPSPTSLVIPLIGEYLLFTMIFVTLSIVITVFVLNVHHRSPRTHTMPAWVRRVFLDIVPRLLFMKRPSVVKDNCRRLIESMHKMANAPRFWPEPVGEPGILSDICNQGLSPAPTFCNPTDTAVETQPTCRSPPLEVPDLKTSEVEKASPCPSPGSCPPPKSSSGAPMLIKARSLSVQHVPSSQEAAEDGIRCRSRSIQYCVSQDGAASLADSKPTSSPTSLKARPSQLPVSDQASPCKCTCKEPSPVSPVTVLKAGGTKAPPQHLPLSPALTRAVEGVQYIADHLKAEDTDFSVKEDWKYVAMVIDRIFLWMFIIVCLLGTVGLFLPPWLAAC
Chain of Neuronal acetylcholine receptor; alpha4/beta2 (P12390 whole entry): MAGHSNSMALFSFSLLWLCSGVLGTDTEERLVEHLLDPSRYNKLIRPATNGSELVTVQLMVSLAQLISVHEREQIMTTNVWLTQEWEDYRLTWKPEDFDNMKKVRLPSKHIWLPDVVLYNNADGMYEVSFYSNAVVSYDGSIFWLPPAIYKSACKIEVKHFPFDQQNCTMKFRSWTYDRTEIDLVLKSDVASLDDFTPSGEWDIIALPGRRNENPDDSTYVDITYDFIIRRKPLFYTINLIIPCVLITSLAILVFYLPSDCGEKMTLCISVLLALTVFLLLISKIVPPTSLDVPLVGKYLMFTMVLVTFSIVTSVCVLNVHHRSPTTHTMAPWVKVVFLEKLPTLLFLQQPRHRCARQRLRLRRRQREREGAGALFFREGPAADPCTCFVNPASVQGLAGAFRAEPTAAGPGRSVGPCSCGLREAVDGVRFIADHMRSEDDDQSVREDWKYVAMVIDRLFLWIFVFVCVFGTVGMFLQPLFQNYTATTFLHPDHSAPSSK

| SMILES | Ki [1] [µM] | Ki [2] [µM] | Ki [3] [µM] |
| --- | --- | --- | --- |
| CN1CCC[C@H]1[C@H]1CNC(=O)O1 | 35 | 100 | – |
| CN1CCC[C@@H]1[C@@H]1CNC(=O)O1 | 37 | 43 | – |
| CN1CCC[C@H]1[C@H]1COc2ccccc2O1.Cl | 0.47 | 14.6 | 1.67 |
| CN1CCC[C@@H]1[C@@H]1COc2ccccc2O1.Cl | 43.8 | 14.8 | 6.67 |
| Cl.c1ccc2c(c1)OC[C@@H]([C@H]1CCCN1)O2 | 11.6 | 27 | 6.33 |
| CN1CCC[C@@H]1[C@H]1CNC(=O)O1 | 40 | 100 | – |
| Cl.c1ccc2c(c1)OC[C@H]([C@H]1CCCN1)O2 | 88 | 14.7 | 14 |
| CN1CCC[C@H]1[C@@H]1COc2ccccc2O1 | 0.26 | 21 | – |
| CN1CCC[C@@H]1[C@H]1COc2ccccc2O1 | 12.5 | 35 | – |
| Cl.c1ccc2c(c1)OC[C@H]([C@@H]1CCCN1)O2 | 14.4 | 32.2 | 0.64 |
| CN1CCC[C@H]1[C@@H]1CNC(=O)O1 | 2.7 | 21 | – |
| Cl.c1ccc2c(c1)OC[C@@H]([C@@H]1CCCN1)O2 | 2.1 | 36 | 1.35 |
